Experimental data as given in paper PMC2874393, “Comparison of zwitterionic N-alkylaminomethanesulfonic acids to related compounds in the Good buffer series” (Beilstein Journal of Organic Chemistry, 2010).
Where two headings read alike, the source gives them in different places. Marks after values point to notes of the source that are not given here.

Key:
E. coli strain HB101 = test: culture growth with buffer compounds, optical density at 600 nm; format: cell-based; conditions: for Final OD600: E. coli HB101, pH 7.2, 37 °C, 18 h, 3 trials; for culture growth support: all concentrations tested (10, 20, 50 mM); for toxicity or culture growth inhibition: higher concentrations of buffer
Protocol: In order to assess the potential utility of these compounds as biological buffers, we conducted an initial experiment with different concentrations of the new compounds with E. coli strain HB101 at pH 7.2 and 37 °C for 18 h. Culture growth was estimated by optical density measurement at 600 nm, and the results are summarized in Table 2 (in which each value is the result of 3 separate trials, with an overall standard error for all final measurements of 0.025).

[1] = aqueous solubility (observation); format: physicochemical; conditions: at low pH / pH ≤ pKa
Excerpt: All of the compounds except 2 show evidence of a systematic decrease in pKa as the number of carbons between the amine and sulfonic acid functional groups decreases.

[2] = pKa of ammonium ion proton dissociation by aqueous solution titrimetry; format: physicochemical
Protocol: We then performed titrations to determine the pKa values of proton dissociation from the ammonium ion (1a and equivalent). The pKa values determined for these compounds, along with those of the analogous aminoethanesulfonate and aminopropanesulfonate buffer pKa values for comparison is presented in Table 1.
Acid dissociation constants for the ammonium ions were determined by aqueous solution titrimetry (min. 5 repetitions from low to high, then high to low pH) using standardized NaOH and HCl solutions.

[3] = cited from earlier work; for pKa: in water, ref [4]; for pKa (propyl analog) / pKa (ethyl analog): ref [1],[5],[7]
[4] = ammonium ion, aqueous titration
[5] = 2nd (ammonium) dissociation constant value

SMILES: O=S(=O)(O)CN1CCN(CS(=O)(=O)O)CC1 [compound 3, Piperazine-N,N′-bis(methanesulfonic acid)]
- Final OD600 (E. coli strain HB101; 10 mM buffer): 1.23
- Final OD600 (E. coli strain HB101; 20 mM buffer): 1.21
- Final OD600 (E. coli strain HB101; 50 mM buffer): 1.08
- culture growth support (E. coli strain HB101): supported culture growth at all concentrations tested
- toxicity or culture growth inhibition (E. coli strain HB101): possible toxicity or other culture growth inhibition
- aqueous solubility [1]: does not demonstrate the limited aqueous solubility
- pKa ([2]; 0.3 M solution at 20 °C): 4.8
- pKa ([2]; 2nd (ammonium) dissociation constant value, aqueous titration): 4.9

SMILES: NS(=O)(=O)O [sulfamic acid]
- pKa [3]: 1.01

SMILES: NCS(=O)(=O)O [aminomethanesulfonic acid]
- pKa [3]: 5.75

SMILES: O=S(=O)(O)CN1CCN(CCO)CC1 [compound 2, N-(2-hydroxyethyl)piperazine-N′-methanesulfonic acid]
- Final OD600 (E. coli strain HB101; 10 mM buffer): 1.16
- Final OD600 (E. coli strain HB101; 20 mM buffer): 1.08
- Final OD600 (E. coli strain HB101; 50 mM buffer): 0.66
- culture growth support (E. coli strain HB101): supported culture growth at all concentrations tested
- toxicity or culture growth inhibition (E. coli strain HB101): possible toxicity or other culture growth inhibition
- pKa ([2]; 0.25M solution at 20 °C): 7.4
- pKa [2, 4]: 7.9

SMILES: O=S(=O)(O)CCCN1CCN(CCO)CC1 [EPPS, 4-(2-hydroxyethyl)-1-piperazinepropanesulfonic acid]
- pKa (propyl analog) [3]: 8.0

SMILES: O=S(=O)(O)CNC1CCCCC1 [compound 4, Cyclohexylaminomethanesulfonic acid]
- aqueous solubility [1]: limited solubility in aqueous solution
- pKa ([2]; 0.3 M solution at 20 °C): 7.8
- pKa [2, 4]: ~7

SMILES: O=S(=O)(O)CCN1CCN(CCO)CC1 [HEPES]
- pKa (ethyl analog) [3]: 7.5

SMILES: O=S(=O)(O)CN1CCOCC1 [compound 1, N-Morpholinomethanesulfonic acid]
- Final OD600 (E. coli strain HB101; 10 mM buffer): 1.16
- Final OD600 (E. coli strain HB101; 20 mM buffer): 1.22
- Final OD600 (E. coli strain HB101; 50 mM buffer): 1.18
- culture growth support (E. coli strain HB101): supported culture growth at all concentrations tested
- pKa ([2]; 0.3 M solution at 20 °C): 3.8
- pKa [2, 4]: 3.9

SMILES: O=S(=O)(O)CCNC1CCCCC1 [CHES, 2-(cyclohexylamino)ethanesulfonic acid]
- pKa (ethyl analog) [3]: 9.3

SMILES: O=S(=O)(O)CCCN1CCN(CCCS(=O)(=O)O)CC1 [PIPPS, piperazine-N,N′-bis(3-propanesulfonic acid]
- pKa (propyl analog) [3, 5]: 8.0^b

SMILES: O=S(=O)(O)CCN1CCN(CCS(=O)(=O)O)CC1 [PIPES, reference compound]
- pKa (ethyl analog) [3, 5]: 6.8^b
- aqueous solubility [1]: limited aqueous solubility
